Measured values: ChEMBL document CHEMBL5046248, “New Pqs Quorum Sensing System Inhibitor as an Antibacterial Synergist against Multidrug-Resistant Pseudomonas aeruginosa” (J Med Chem, 2022)
pIC50: −log10 of the molar value. Active and inactive are the calls of the source. The rule behind the calls is not given here.

Assays:
Pseudomonas aeruginosa [1] = test: Antibacterial activity against Pseudomonas aeruginosa PAO1 assessed as inhibition of biofilm formation for 24 hrs by crystal violet staining based assay; type: functional, organism-based; conditions: PAO1, 24 h
Pseudomonas aeruginosa [2] = test: Inhibition of rhamnolipid expression in Pseudomonas aeruginosa PAO1-mini-[…]-rhlA-lacZ strain assessed as decrease in beta-galactosidase at 1.25 to 20 uM; type: functional; conditions: PAO1-mini-ctx-[…]-lacZ, dose 1.25-20 µM
Pseudomonas aeruginosa [3] = test: Antibiofilm activity against Pseudomonas aeruginosa PAO1 assessed as inhibition of twitching motility for 16 hrs by motility assay; type: functional, organism-based; conditions: dose 1.25-20 µM
Pseudomonas aeruginosa [4] = test: Inhibition of quorum sensing system in Pseudomonas aeruginosa PAO1 assessed as effect on rhamnolipid production at 1.25 to 20 uM for 24 hrs; conditions: dose 1.25-20 µM
Pseudomonas aeruginosa [5] = test: In vivo antibacterial activity against Pseudomonas aeruginosa PAO1-gfp infected in tail injured zebrafish model assessed as reduction in mortality at 10 to 20 uM measured upto 50 hrs of post fertilization; type: functional, organism-based; conditions: dose 10-20 µM, time hrs <=50
Pseudomonas aeruginosa [6] = test: Synergistic antibacterial activity against multidrug-resistant Pseudomonas aeruginosa 1167 assessed as reduction in bacterial viability after 12 hrs in presence of colistin E; type: functional, organism-based
Pseudomonas aeruginosa [7] = test: Inhibition of pyocyanin expression in Pseudomonas aeruginosa PAO1-mini-[…]-pqsA-lacZ strain assessed as decrease in beta-galactosidase at 1.25 to 20 uM; type: functional; conditions: PAO1-mini-ctx-pqsA-lacZ, dose 1.25-20 µM
Pseudomonas aeruginosa [8] = test: Antibiofilm activity against Pseudomonas aeruginosa PAO1 assessed as effect on pyochelin production fluorescence at 1.25 to 20 uM by fluorescence assay; type: functional, organism-based; conditions: dose 1.25-20 µM
Pseudomonas aeruginosa [9] = test: Inhibition of quorum sensing system in Pseudomonas aeruginosa PAO1 assessed as decrease of pyocyanin production at 1.25 to 20 uM for 24 hrs; conditions: dose 1.25-20 µM
Pseudomonas aeruginosa [10] = test: Antibiofilm activity against Pseudomonas aeruginosa PAO1 assessed as inhibition of swimming motility for 16 hrs by motility assay; type: functional, organism-based; conditions: dose 1.25-20 µM
Pseudomonas aeruginosa [11] = test: Synergistic antibacterial activity against Pseudomonas aeruginosa PAO1 assessed as reduction in bacterial viability after 12 hrs in presence of tobramycin; type: functional, organism-based
Pseudomonas aeruginosa [12] = test: Antibacterial activity against Pseudomonas aeruginosa PAO1 infected rat H9c2 cells assessed as reduction in virulence mediated cytotoxicity by measuring cell survival rate at 20 uM by MTT assay (reference value: 36%); type: functional
Pseudomonas aeruginosa [13] = test: Synergistic antibacterial activity against multidrug-resistant Pseudomonas aeruginosa 1129 assessed as reduction in bacterial viability after 12 hrs in presence of 1/2 MIC of ciprofloxacin; type: functional, organism-based
H9c2 [14] = test: Cytotoxicity against rat H9c2 cells assessed as reduction in cell viability at up to 25 uM incubated for 24 hrs by MTT assay; type: toxicity, cell-based; conditions: h9c2, 24 h
Pseudomonas aeruginosa [15] = test: Synergistic antibacterial activity against multidrug-resistant Pseudomonas aeruginosa 1129 assessed as reduction in bacterial viability after 12 hrs in presence of colistin E; type: functional, organism-based
Pseudomonas aeruginosa [16] = test: Synergistic antibacterial activity against multidrug-resistant Pseudomonas aeruginosa 1121 assessed as reduction in bacterial viability after 12 hrs in presence of 1/2 MIC of ciprofloxacin; type: functional, organism-based
Pseudomonas aeruginosa [17] = test: Synergistic antibacterial activity against multidrug-resistant Pseudomonas aeruginosa FB assessed as reduction in bacterial viability after 12 hrs in presence of tobramycin; type: functional, organism-based
Pseudomonas aeruginosa [18] = test: Inhibition of quorum sensing system in Pseudomonas aeruginosa PAO1 assessed as effect on elastase production for 24 hrs; conditions: dose 1.25-20 µM
Pseudomonas aeruginosa [19] = test: Synergistic antibacterial activity against multidrug-resistant Pseudomonas aeruginosa 1167 assessed as reduction in bacterial viability after 12 hrs in presence of 1/2 MIC of ciprofloxacin; type: functional, organism-based
Pseudomonas aeruginosa [20] = test: Synergistic antibacterial activity against Pseudomonas aeruginosa PAO1 assessed as reduction in bacterial viability after 12 hrs in presence of colistin E; type: functional, organism-based
Pseudomonas aeruginosa [21] = test: Synergistic antibacterial activity against multidrug-resistant Pseudomonas aeruginosa 1121 assessed as reduction in bacterial viability after 12 hrs in presence of colistin E; type: functional, organism-based
Pseudomonas aeruginosa [22] = test: In vivo antibacterial activity against Pseudomonas aeruginosa PAO1-gfp infected in tail injured zebrafish model assessed as increase in survival of zebrafish at 10 to 20 uM measured upto 50 hrs of post fertilization; type: functional, organism-based; conditions: dose 10-20 µM, time hrs <=50
Pseudomonas aeruginosa [23] = test: Synergistic antibacterial activity against multidrug-resistant Pseudomonas aeruginosa FB assessed as reduction in bacterial viability after 12 hrs in presence of colistin E; type: functional, organism-based
Pseudomonas aeruginosa [24] = test: Antibiofilm activity against Pseudomonas aeruginosa PAO1 assessed as suppression of biofilm formation for 24 hrs by fluorescent dye SYTO9 and propidium iodide staining based confocal laser microscopic analysis; type: functional, organism-based; conditions: dose 0.625-10 µM
Pseudomonas aeruginosa [25] = test: Inhibition of beta-galactosidase expression in Pseudomonas aeruginosa PAO1-mini-[…]-lacZ strain at 1.25 to 20 uM; type: functional; conditions: dose 1.25-20 µM
Pseudomonas aeruginosa [26] = test: Antibacterial activity against Pseudomonas aeruginosa PAO1 infected rat H9c2 cells assessed as reduction in virulence mediated cytotoxicity by measuring increase in cell viability by MTT assay; type: functional, organism-based; conditions: dose 1.25-20 µM
Pseudomonas aeruginosa [27] = test: Inhibition of quorum sensing system in Pseudomonas aeruginosa PAO1 assessed as reduction of pyocyanin expression in flask at 1.25 to 20 uM for 24 hrs; conditions: dose 1.25-20 µM
Pseudomonas aeruginosa [28] = test: Antibiofilm activity against Pseudomonas aeruginosa PAO1 assessed as increase in pyoverdine production at 40 uM by fluorescence assay; type: functional, organism-based
Pseudomonas aeruginosa [29] = test: Antibiofilm activity against Pseudomonas aeruginosa PAO1 assessed as inhibition rate at 0.625 uM for 24 hrs by crystal violet staining based assay relative to control; type: functional
Pseudomonas aeruginosa [30] = test: Inhibition of elastase expression in Pseudomonas aeruginosa PAO1-mini-[…]-lasB-lacZ strain assessed as decrease in beta-galactosidase at 1.25 to 20 uM; type: functional; conditions: PAO1-mini-[…]-lasB-[…], dose 1.25-20 µM
Pseudomonas aeruginosa [31] = test: Synergistic antibacterial activity against multidrug-resistant Pseudomonas aeruginosa FB assessed as reduction in bacterial viability after 12 hrs in presence of 1/2 MIC of ciprofloxacin; type: functional, organism-based
Pseudomonas aeruginosa [32] = test: Synergistic antibacterial activity against multidrug-resistant Pseudomonas aeruginosa 1129 assessed as reduction in bacterial viability after 12 hrs in presence of tobramycin; type: functional, organism-based
Pseudomonas aeruginosa [33] = test: Synergistic antibacterial activity against Pseudomonas aeruginosa PAO1 assessed as reduction in bacterial viability after 12 hrs in presence of 1/2 MIC of ciprofloxacin; type: functional, organism-based
Pseudomonas aeruginosa [34] = test: Antibiofilm activity against Pseudomonas aeruginosa PAO1 assessed as inhibition of swarming motility for 16 hrs by motility assay; type: functional, organism-based; conditions: dose 1.25-20 µM
H9c2 [35] = test: Cytotoxicity against rat H9c2 cells assessed as reduction in cell viability at 50 uM incubated for 24 hrs by MTT assay; type: toxicity, cell-based; conditions: h9c2, 24 h
Pseudomonas aeruginosa [36] = test: In vivo antibacterial activity against Pseudomonas aeruginosa PAO1-gfp infected in tail injured zebrafish model assessed as reduction in bacterial burden at 20 uM measured after 24 hrs of post infection; type: functional, organism-based

O=C(NCc1cc(=O)c(O)cn1O)c1ccccc1
pIC50 (Pseudomonas aeruginosa [1]): < 4.00

CCCCn1c(C)cc(=O)c(O)c1CNC1CCCC1
pIC50 (Pseudomonas aeruginosa [1]): < 4.00

CCCn1c(C)cc(=O)c(O)c1CNC(=O)c1ccc(C(F)(F)F)cc1
pIC50 (Pseudomonas aeruginosa [1]): < 4.00

CCCCn1c(C)cc(=O)c(O)c1CNC(=O)c1ccc(OC)cc1
Activity (Pseudomonas aeruginosa [2]): inactive
Activity (Pseudomonas aeruginosa [3]): Dose-Dependent Effect
Activity (Pseudomonas aeruginosa [4]): inactive
Activity (Pseudomonas aeruginosa [5]): Active
Activity (Pseudomonas aeruginosa [6]): Dose-Dependent Effect
Activity (Pseudomonas aeruginosa [7]): Dose-Dependent Effect
Activity (Pseudomonas aeruginosa [8]): inactive
Activity (Pseudomonas aeruginosa [9]): Dose-Dependent Effect
Activity (Pseudomonas aeruginosa [10]): Dose-Dependent Effect
Activity (Pseudomonas aeruginosa [11]): Dose-Dependent Effect
Activity (Pseudomonas aeruginosa [12]): 79%
Activity (Pseudomonas aeruginosa [13]): Dose-Dependent Effect
Activity (H9c2 [14]): Non-Toxic
Activity (Pseudomonas aeruginosa [15]): Dose-Dependent Effect
Activity (Pseudomonas aeruginosa [16]): Dose-Dependent Effect
Activity (Pseudomonas aeruginosa [17]): Dose-Dependent Effect
Activity (Pseudomonas aeruginosa [18]): inactive
Activity (Pseudomonas aeruginosa [19]): Dose-Dependent Effect
Activity (Pseudomonas aeruginosa [20]): Dose-Dependent Effect
Activity (Pseudomonas aeruginosa [21]): Dose-Dependent Effect
Activity (Pseudomonas aeruginosa [22]): Active
Activity (Pseudomonas aeruginosa [23]): Dose-Dependent Effect
Activity (Pseudomonas aeruginosa [24]): Dose-Dependent Effect
Activity (Pseudomonas aeruginosa [25]): inactive
Activity (Pseudomonas aeruginosa [26]): Dose-Dependent Effect
Activity (Pseudomonas aeruginosa [27]): Active
Activity (Pseudomonas aeruginosa [28]): Active
inhibition at 0.625 µM (Pseudomonas aeruginosa [29]): > 28%
Activity (Pseudomonas aeruginosa [30]): inactive
Activity (Pseudomonas aeruginosa [31]): Dose-Dependent Effect
Activity (Pseudomonas aeruginosa [32]): Dose-Dependent Effect
Activity (Pseudomonas aeruginosa [33]): Dose-Dependent Effect
pIC50 (Pseudomonas aeruginosa [1]): 5.35
Activity (Pseudomonas aeruginosa [34]): Dose-Dependent Effect
Activity (H9c2 [35]): Toxic
Activity (Pseudomonas aeruginosa [36]): Active

CCCn1c(C)cc(=O)c(O)c1CNC(=O)c1ccc(OC)cc1
pIC50 (Pseudomonas aeruginosa [1]): 5.28

CCCCCCC(=O)NCc1c(O)c(=O)cc(C)n1CCCC
pIC50 (Pseudomonas aeruginosa [1]): < 4.00

O=C(Cc1ccc(F)cc1)NCc1cc(=O)c(O)cn1O
pIC50 (Pseudomonas aeruginosa [1]): < 4.00

CCn1c(C)cc(=O)c(O)c1CNC1CCCC1
pIC50 (Pseudomonas aeruginosa [1]): < 4.00

CCCn1c(C)cc(=O)c(O)c1CNC(=O)Cc1ccc(F)cc1
pIC50 (Pseudomonas aeruginosa [1]): < 4.00

COCCn1c(C)cc(=O)c(O)c1CNC(=O)c1ccc(OC)cc1
pIC50 (Pseudomonas aeruginosa [1]): < 4.00

O=C(NCc1cc(=O)c(O)cn1O)c1ccc(C(F)(F)F)cc1
pIC50 (Pseudomonas aeruginosa [1]): < 4.00

CC[C@H]1OC(=O)[C@H](C)[C@@H](O[C@H]2C[C@@](C)(OC)[C@@H](O)[C@H](C)O2)[C@H](C)[C@@H](O[C@@H]2O[C@H](C)C[C@H](N(C)C)[C@H]2O)[C@](C)(O)C[C@@H](C)CN(C)[C@H](C)[C@@H](O)[C@]1(C)O [AZITHROMYCIN]
pIC50 (Pseudomonas aeruginosa [1]): 5.15

CCCn1c(C)cc(=O)c(O)c1CNC(=O)c1cccc(OC)c1
pIC50 (Pseudomonas aeruginosa [1]): 4.25

CCCCCC(=O)NCc1cc(=O)c(O)cn1O
pIC50 (Pseudomonas aeruginosa [1]): < 4.00

CCCCCCCC(=O)NCc1cc(=O)c(O)cn1O
pIC50 (Pseudomonas aeruginosa [1]): < 4.00

CCn1c(C)cc(=O)c(O)c1CNc1ccc(OC)cc1
pIC50 (Pseudomonas aeruginosa [1]): < 4.00

CCCCn1c(C)cc(=O)c(O)c1CNS(=O)(=O)c1ccc(OC)cc1
pIC50 (Pseudomonas aeruginosa [1]): 4.39

CCCCCC(=O)NCc1c(O)c(=O)cc(C)n1CCCC
pIC50 (Pseudomonas aeruginosa [1]): 4.46

Cc1c(O)c(=O)ccn1C
Activity (Pseudomonas aeruginosa [8]): inactive

COc1ccc(C(=O)NCc2cc(=O)c(O)cn2O)cc1
pIC50 (Pseudomonas aeruginosa [1]): < 4.00

CCCCCCC(=O)NCc1cc(=O)c(O)cn1C
pIC50 (Pseudomonas aeruginosa [1]): < 4.00

CCCn1c(C)cc(=O)c(O)c1CNC(=O)c1ccccc1OC
pIC50 (Pseudomonas aeruginosa [1]): 4.20

CCCCn1c(C)cc(=O)c(O)c1CNC(=O)c1ccc(C(F)(F)F)cc1
pIC50 (Pseudomonas aeruginosa [1]): 5.08
